Measurements reported in patent US11566057B2, “Long-acting co-agonists of the glucagon and GLP-1 receptors” (Merck Sharp & Dohme Corp., priority 2017, dated 2023).
Read-outs that look alike come from different tables or passages of the source. Numbered stars: 1 amine (or outer) side, 2 acyl side, 3 side chain; on linkers, the order of the positions; unused ones are H or OH. Square brackets hold non-standard residues; d marks the D form. Side chains are listed from the residue outwards. Peptide text beside a SMILES is read from it. * marks the point of attachment. C20 diacid = O=C(O)CCCCCCCCCCCCCCCCCCC(=O)*; Phe(4-CH2NH2) = NCc1ccc(C[C@H](N)C(=O)O)cc1; C18 diacid = O=C(O)CCCCCCCCCCCCCCCCC(=O)*; αMeW = C[C@](N)(Cc1c[nH]c2ccccc12)C(=O)O; γGlu = O=C(O)[C@H](CCC(=O)[*:2])N[*:1]; Met(O2) = CS(=O)(=O)CC[C@H](N)C(=O)O; αMeF = C[C@](N)(Cc1ccccc1)C(=O)O; αMeD = C[C@](N)(CC(=O)O)C(=O)O; AEEA = NCCOCCOCC(=O)O; Aib = CC(C)(N)C(=O)O

Experiments:
human GLP1R = target: T1, human GLP1R (Homo sapiens, UniProt P43220); test: cAMP activity assay at the GLP-1 receptor (GLP1R); assay type: cell-based
T1 construct: expressed in transfected cells; growth medium holds Blasticidin and Hygromycin
Procedure, shortened: (§1)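 Peptides serially diluted from DMSO (10 points) and added to frozen-stock cells bearing human GLP1R (10,000 cells/well) or GCGR (30,000 cells/well), 1 h at RT, dark. EC50 by four-parameter logistic fit of HitHunter cAMPXS luminescence, read following overnight RT incubation.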

human GCGR = target: T2, human GCGR (Homo sapiens, UniProt P47871); test: cAMP activity assay at the Glucagon receptor (GCGR); assay type: cell-based; conditions: for hGCGR/hGLP1R (hTone): ratio of GCGR EC50 to GLP1R EC50
T2 construct: expressed in transfected cells; growth medium holds Blasticidin and Hygromycin
Procedure, shortened: as §1

[1] = cells expressing human GLP1R, cAMP production, buffer with or without 20% human serum (not stated which), read-out: GLP1R EC50 human
[2] = summary statement: EC50 at each of the glucagon and GLP-1 receptors, read-out: EC50 at the GLP-1 receptor
[3] = summary statement: EC50 at each of the glucagon and GLP-1 receptors, read-out: EC50 at the glucagon receptor

T2 sequence (P47871 26-477): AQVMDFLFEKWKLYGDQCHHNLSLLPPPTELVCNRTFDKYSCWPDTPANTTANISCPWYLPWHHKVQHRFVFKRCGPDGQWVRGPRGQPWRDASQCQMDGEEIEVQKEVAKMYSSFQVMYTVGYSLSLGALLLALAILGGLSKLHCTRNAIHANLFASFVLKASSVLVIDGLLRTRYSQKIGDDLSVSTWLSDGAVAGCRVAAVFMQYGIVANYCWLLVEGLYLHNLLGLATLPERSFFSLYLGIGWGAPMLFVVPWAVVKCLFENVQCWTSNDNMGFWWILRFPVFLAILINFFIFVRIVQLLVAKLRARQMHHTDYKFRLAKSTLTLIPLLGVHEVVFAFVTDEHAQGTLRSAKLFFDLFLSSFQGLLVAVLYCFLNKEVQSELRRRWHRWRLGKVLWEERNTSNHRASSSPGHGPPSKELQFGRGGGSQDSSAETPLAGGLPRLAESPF
T1 sequence (P43220 24-463): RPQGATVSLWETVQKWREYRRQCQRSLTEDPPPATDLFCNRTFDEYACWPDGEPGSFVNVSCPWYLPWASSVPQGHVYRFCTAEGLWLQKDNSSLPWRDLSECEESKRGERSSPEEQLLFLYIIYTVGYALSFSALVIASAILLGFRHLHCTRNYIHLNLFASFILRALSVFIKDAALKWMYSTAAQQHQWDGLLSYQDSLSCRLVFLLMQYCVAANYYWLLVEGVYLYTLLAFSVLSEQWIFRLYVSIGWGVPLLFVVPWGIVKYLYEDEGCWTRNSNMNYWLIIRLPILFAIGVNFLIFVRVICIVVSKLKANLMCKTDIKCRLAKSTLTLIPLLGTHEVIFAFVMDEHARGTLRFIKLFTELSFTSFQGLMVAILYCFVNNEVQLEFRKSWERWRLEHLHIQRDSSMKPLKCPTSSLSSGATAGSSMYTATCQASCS

Row | SMILES | EC50 (human GLP1R; [1]) [nM] | EC50 (human GCGR; cells expressing human GCGR, cAMP production, buffer with or without 20% human serum (not stated which), read-out: GCGR EC50 human) [nM] | hGCGR/hGLP1R (hTone) (human GCGR) | EC50 (human GLP1R; [2]) [nM] | EC50 (human GCGR; [3]) [nM]
1 | CC(C)C[C@H](NC(=O)[C@H](Cc1ccc(O)cc1)NC(=O)[C@H](CCCCN)NC(=O)[C@H](CO)NC(=O)[C@H](Cc1ccc(O)cc1)NC(=O)[C@H](CC(=O)O)NC(=O)[C@H](CO)NC(=O)[C@@H](NC(=O)[C@H](Cc1ccccc1)NC(=O)[C@@H](NC(=O)CNC(=O)[C@H](CCC(N)=O)NC(=O)C(C)(C)NC(=O)[C@@H](N)Cc1c[nH]cn1)[C@@H](C)O)[C@@H](C)O)C(=O)N[C@@H](CC(=O)O)C(=O)N[C@@H](C)C(=O)N[C@@H](CCCNC(=N)N)C(=O)N[C@@H](C)C(=O)N[C@@H](C)C(=O)N[C@@H](CCCCNC(=O)COCCOCCNC(=O)COCCOCCNC(=O)CC[C@H](NC(=O)CCCCCCCCCCCCCCCCC(=O)O)C(=O)O)C(=O)N[C@@](C)(CC(=O)O)C(=O)N[C@@H](Cc1ccccc1)C(=O)N[C@H](C(=O)N[C@@H](CCC(N)=O)C(=O)N[C@@H](Cc1c[nH]c2ccccc12)C(=O)N[C@@H](CC(C)C)C(=O)N[C@@H](CCS(C)(=O)=O)C(=O)N[C@@](C)(CC(=O)O)C(=O)N[C@H](C(N)=O)[C@@H](C)O)C(C)C [TP611] (H-H[Aib]QGTFTSDYSKYLDARAAK([AEEA-AEEA-γGlu-C18 diacid])[αMeD]FVQWL[Met(O2)][αMeD]T-NH2) | > 5 | 0.2 | <0.02 | – | –
2 | CC(C)C[C@H](NC(=O)[C@H](Cc1c[nH]c2ccccc12)NC(=O)[C@H](CCC(N)=O)NC(=O)[C@@H](NC(=O)[C@H](Cc1ccccc1)NC(=O)[C@H](CC(=O)O)NC(=O)[C@H](CCCCNC(=O)COCCOCCNC(=O)COCCOCCNC(=O)CC[C@H](NC(=O)CCCCCCCCCCCCCCCCCCC(=O)O)C(=O)O)NC(=O)[C@H](C)NC(=O)[C@H](C)NC(=O)[C@H](CCCNC(=N)N)NC(=O)C(C)(C)NC(=O)[C@H](CC(=O)O)NC(=O)[C@H](CC(C)C)NC(=O)[C@H](Cc1ccc(O)cc1)NC(=O)[C@H](CCCCN)NC(=O)[C@H](CO)NC(=O)[C@H](Cc1ccc(O)cc1)NC(=O)[C@H](CC(=O)O)NC(=O)[C@H](CO)NC(=O)[C@@H](NC(=O)[C@H](Cc1ccccc1)NC(=O)[C@@H](NC(=O)CNC(=O)[C@H](CCC(N)=O)NC(=O)[C@@H](CO)NC(=O)[C@@H](N)Cc1c[nH]cn1)[C@@H](C)O)[C@@H](C)O)C(C)C)C(=O)N[C@@H](CCS(C)(=O)=O)C(=O)N[C@@H](CC(=O)O)C(=O)N[C@H](C(N)=O)[C@@H](C)O [TP578] | 4.95 | – | – | < 5 | < 5
3 | CC(C)C[C@H](NC(=O)[C@H](Cc1ccc(O)cc1)NC(=O)[C@H](CCCCN)NC(=O)[C@H](CO)NC(=O)[C@H](Cc1ccc(O)cc1)NC(=O)[C@H](CC(=O)O)NC(=O)[C@H](CO)NC(=O)[C@@H](NC(=O)[C@H](Cc1ccccc1)NC(=O)[C@@H](NC(=O)CNC(=O)[C@H](CCC(N)=O)NC(=O)C(C)(C)NC(=O)[C@@H](N)Cc1c[nH]cn1)[C@@H](C)O)[C@@H](C)O)C(=O)N[C@@H](CC(=O)O)C(=O)N[C@@H](C)C(=O)N[C@@H](CCCNC(=N)N)C(=O)N[C@@H](C)C(=O)N[C@@H](C)C(=O)N[C@@H](CCCCNC(=O)COCCOCCNC(=O)COCCOCCNC(=O)CC[C@H](NC(=O)CCCCCCCCCCCCCCCCCCC(=O)O)C(=O)O)C(=O)N[C@@H](CC(=O)O)C(=O)N[C@@](C)(Cc1ccccc1)C(=O)N[C@H](C(=O)N[C@@H](CCC(N)=O)C(=O)N[C@@H](Cc1c[nH]c2ccccc12)C(=O)N[C@@H](CC(C)C)C(=O)N[C@@H](CCS(C)(=O)=O)C(=O)N[C@@H](CC(=O)O)C(=O)N[C@H](C(N)=O)[C@@H](C)O)C(C)C [TP590] (H-H[Aib]QGTFTSDYSKYLDARAAK([AEEA-AEEA-γGlu-C20 diacid])D[αMeF]VQWL[Met(O2)]DT-NH2) | – | – | 3.1 | < 5 | < 5
4 | CC(C)C[C@H](NC(=O)[C@H](Cc1ccc(O)cc1)NC(=O)[C@H](CCCCN)NC(=O)[C@H](CO)NC(=O)[C@H](Cc1ccc(O)cc1)NC(=O)[C@H](CC(=O)O)NC(=O)[C@H](CO)NC(=O)[C@@H](NC(=O)[C@H](Cc1ccccc1)NC(=O)[C@@H](NC(=O)CNC(=O)[C@H](CCC(N)=O)NC(=O)C(C)(C)NC(=O)[C@@H](N)Cc1c[nH]cn1)[C@@H](C)O)[C@@H](C)O)C(=O)N[C@@H](CC(=O)O)C(=O)N[C@@H](C)C(=O)N[C@@H](CCCNC(=N)N)C(=O)N[C@@H](C)C(=O)N[C@@H](C)C(=O)N[C@@H](CCCCNC(=O)COCCOCCNC(=O)COCCOCCNC(=O)COCCOCCNC(=O)CC[C@H](NC(=O)CCCCCCCCCCCCCCCCC(=O)O)C(=O)O)C(=O)N[C@@H](CC(=O)O)C(=O)N[C@@H](Cc1ccccc1)C(=O)N[C@H](C(=O)N[C@@H](CCC(N)=O)C(=O)N[C@@H](Cc1c[nH]c2ccccc12)C(=O)N[C@@H](CC(C)C)C(=O)N[C@@H](CCS(C)(=O)=O)C(=O)N[C@@H](CC(=O)O)C(=O)N[C@H](C(N)=O)[C@@H](C)O)C(C)C [TP676] (H-H[Aib]QGTFTSDYSKYLDARAAK([AEEA-AEEA-AEEA-γGlu-C18 diacid])DFVQWL[Met(O2)]DT-NH2; N-terminus assumed) | 0.26 | – | 3.1 | < 5 | < 5
5 | CC(C)C[C@H](NC(=O)[C@H](Cc1ccc(O)cc1)NC(=O)[C@H](CCCCN)NC(=O)[C@H](CO)NC(=O)[C@H](Cc1ccc(O)cc1)NC(=O)[C@H](CC(=O)O)NC(=O)[C@H](CO)NC(=O)[C@@H](NC(=O)[C@H](Cc1ccccc1)NC(=O)[C@@H](NC(=O)CNC(=O)[C@H](CCC(N)=O)NC(=O)C(C)(C)NC(=O)[C@@H](N)Cc1c[nH]cn1)[C@@H](C)O)[C@@H](C)O)C(=O)N[C@@H](CC(=O)O)C(=O)N[C@@H](CCC(=O)O)C(=O)N[C@@H](CCCNC(=N)N)C(=O)N[C@@H](C)C(=O)N[C@@H](C)C(=O)N[C@@H](Cc1ccc(CNC(=O)COCCOCCNC(=O)COCCOCCNC(=O)CC[C@H](NC(=O)CCCCCCCCCCCCCCCCC(=O)O)C(=O)O)cc1)C(=O)N[C@@H](CC(=O)O)C(=O)N[C@@H](Cc1ccccc1)C(=O)N[C@H](C(=O)N[C@@H](CCC(N)=O)C(=O)N[C@@H](Cc1c[nH]c2ccccc12)C(=O)N[C@@H](CC(C)C)C(=O)N[C@@H](CC(C)C)C(=O)N[C@@H](CCCCN)C(=O)N[C@H](C(N)=O)[C@@H](C)O)C(C)C [TP587] (H-H[Aib]QGTFTSDYSKYLDERAA[Phe(4-CH2NH2)]([AEEA-AEEA-γGlu-C18 diacid])DFVQWLLKT-NH2; N-terminus assumed) | 0.41 | – | >4.1 | < 5 | < 5
6 | CC(C)C[C@H](NC(=O)[C@H](Cc1ccc(O)cc1)NC(=O)[C@H](CCCCN)NC(=O)[C@H](CO)NC(=O)[C@H](Cc1ccc(CNC(=O)COCCOCCNC(=O)COCCOCCNC(=O)CC[C@H](NC(=O)CCCCCCCCCCCCCCCCC(=O)O)C(=O)O)cc1)NC(=O)[C@H](CC(=O)O)NC(=O)[C@H](CO)NC(=O)[C@@H](NC(=O)[C@H](Cc1ccccc1)NC(=O)[C@@H](NC(=O)CNC(=O)[C@H](CCC(N)=O)NC(=O)C(C)(C)NC(=O)[C@@H](N)Cc1c[nH]cn1)[C@@H](C)O)[C@@H](C)O)C(=O)N[C@@H](CC(=O)O)C(=O)N[C@@H](C)C(=O)N[C@@H](CCCNC(=N)N)C(=O)N[C@@H](C)C(=O)N[C@@H](C)C(=O)N[C@@H](CCC(N)=O)C(=O)N[C@@H](CC(=O)O)C(=O)N[C@@H](Cc1ccccc1)C(=O)N[C@H](C(=O)N[C@@H](CCC(N)=O)C(=O)N[C@@H](Cc1c[nH]c2ccccc12)C(=O)N[C@@H](CC(C)C)C(=O)N[C@@H](CCS(C)(=O)=O)C(=O)N[C@@](C)(CC(=O)O)C(=O)N[C@H](C(N)=O)[C@@H](C)O)C(C)C [TP624] (H-H[Aib]QGTFTSD[Phe(4-CH2NH2)]([AEEA-AEEA-γGlu-C18 diacid])SKYLDARAAQDFVQWL[Met(O2)][αMeD]T-NH2; N-terminus assumed) | – | – | 1.1 | < 5 | < 5
7 | CC(C)C[C@H](NC(=O)[C@H](Cc1ccc(O)cc1)NC(=O)[C@H](CCCCN)NC(=O)[C@H](CO)NC(=O)[C@H](Cc1ccc(CNC(=O)COCCOCCNC(=O)COCCOCCNC(=O)CC[C@H](NC(=O)CCCCCCCCCCCCCCCCC(=O)O)C(=O)O)cc1)NC(=O)[C@H](CC(=O)O)NC(=O)[C@H](CO)NC(=O)[C@@H](NC(=O)[C@H](Cc1ccccc1)NC(=O)[C@@H](NC(=O)CNC(=O)[C@H](CCC(N)=O)NC(=O)C(C)(C)NC(=O)[C@@H](N)Cc1c[nH]cn1)[C@@H](C)O)[C@@H](C)O)C(=O)N[C@@H](CC(=O)O)C(=O)N[C@@H](C)C(=O)N[C@@H](CCCNC(=N)N)C(=O)N[C@@H](C)C(=O)N[C@@H](C)C(=O)N[C@@H](CCC(N)=O)C(=O)N[C@@H](CC(=O)O)C(=O)N[C@@H](Cc1ccccc1)C(=O)N[C@H](C(=O)N[C@@H](CCC(N)=O)C(=O)N[C@@](C)(Cc1c[nH]c2ccccc12)C(=O)N[C@@H](CC(C)C)C(=O)N[C@@H](CCS(C)(=O)=O)C(=O)N[C@@H](CC(=O)O)C(=O)N[C@H](C(N)=O)[C@@H](C)O)C(C)C [TP625] (H-H[Aib]QGTFTSD[Phe(4-CH2NH2)]([AEEA-AEEA-γGlu-C18 diacid])SKYLDARAAQDFVQ[αMeW]L[Met(O2)]DT-NH2; N-terminus assumed) | – | – | 3.4 | < 5 | < 5
